Laboratory results taken from patent US5656422A, “Compositions and methods for detection of 2,4-dichlorophenoxyacetic acid and related compounds” (Idaho Research Foundation, Inc., priority 1994, dated 1997).

Columns and labels:
[1] = test system: E. coli DH5α (pYG3); experiment: Induction of enzyme production by IPTG in E. coli DH5α (pYG3); type: cell-based
Experimental: Growth and maintenance of E. coli DH5α (pYG3). E. coli DH5α (pYG3), a strain specifically constructed for 2,4-D detection (Example 1), was routinely maintained on LB plates with 75 mg/l of ampicillin and stored at 4° C. Yeast extract was used as a carbon and energy source for E. coli DH5α (pYG3) with 50 mg/l of ampicillin for selective pressure. Batch cultures of E. coli DH5α (pYG3) were carried out in 1000 ml flasks with 400 ml media for the optimization of media and operating condition. The media were directly inoculated by a single colony on a LB plate. The flasks were shaken on a rotary shaker at 200 rpm and incubated at 30° C. or 37° C.
DCP concentration was measured by the 4-aminoantipyrine method (E. Emerson, J. Org. Chem. 1943, 8, 417-419). In place of 2,4-D, phenoxyacetic acid was used for P. aeruginosa PAO1 (pRO103).
Preparation of cell-free extracts. E. coli cultures (10 or 15 ml) were harvested by centrifugation (8,000×g) for 10 minutes, washed using 5 ml of 100 mM sodium phosphate buffer (pH 8.0), then resuspended in 3 ml of phosphate buffer. Cell-free extracts were obtained by passing the cells once through a pre-chilled French press at 1500 psi and clarifying the debris by centrifugation (16,000×g) for 20 minutes at 4° C.
IPTG concentration. IPTG was used as the inducer of the lacZ promoter which regulated the expression of tfdA in pYG3 (Example 1). […]

[2] = target: T1, 2,4-D α-ketoglutarate dioxygenase (Cupriavidus pinatubonensis, UniProt P10088); set-up: made in house; host or cells: E. coli DH5α (pYG3), cell-free extract; settings: cited from earlier work
T1 sequence (P10088 whole entry): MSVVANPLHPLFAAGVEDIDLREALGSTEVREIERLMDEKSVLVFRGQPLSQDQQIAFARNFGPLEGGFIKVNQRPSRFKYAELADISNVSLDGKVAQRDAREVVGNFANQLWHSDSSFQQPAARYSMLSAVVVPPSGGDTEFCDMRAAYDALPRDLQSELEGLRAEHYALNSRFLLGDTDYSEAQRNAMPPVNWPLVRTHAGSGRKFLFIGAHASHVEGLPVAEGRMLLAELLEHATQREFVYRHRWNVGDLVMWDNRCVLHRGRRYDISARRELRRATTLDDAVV

[3] = test system: O=C(O)CCC(=O)C(=O)O; experiment: cells, lysate or membranes named; settings: other: 20° C., pH 8.0, 50 μM Fe^2, cell-free extract
[4] = test system: O=C(O)COc1ccc(Cl)cc1Cl; experiment: cells, lysate or membranes named; settings: other: 20° C., pH 8.0, 50 μM Fe^2, cell-free extract
From the text: (§1) Effect of pH on enzyme activity. Since the color reaction by the 4-aminoantipyrine method is almost instantaneous, the conversion rate of 2,4-D into DCP determines the response time for 2,4-D detection. Higher reaction rates result in smaller response times or less enzyme needed for 2,4-D detection. […] However, the preferred pH for the color reaction is in the range of pH 8.0 to 12.0. […] More importantly, 4-aminoantipyrine reacts with potassium ferricyanide at pH 6.5, producing a slight color change that is similar to having 2 mg/l DCP in solutions. Although pH 6.5 can be used for the enzymatic reaction if the pH of the solution is subsequently adjusted for the color reaction, this is less convenient.
(§2) Effect of Fe^2+ on enzyme activity. […] This saturation concentration should be a function of enzyme concentration used. In order to maximize enzyme activity, a higher ferrous ion concentration, such as 100 μM, should be used for 2,4-D detection.
(§3) Kinetics of enzymatic reaction. […] Since oxygen cannot be controlled in the process of 2,4-D detection, oxygen was not considered in the model. Kinetic data were measured at pH 8.0, 100 mM Fe^2+ and room temperature (20° C.), as shown in the Lineweaver-Burk plots in FIGS. 18A and 18B.
(§4) The values of model parameters were determined from double reciprocal plots.

[5] = target: T1, 2,4-D α-ketoglutarate dioxygenase; experiment: Enzyme activity and kinetics of recombinant DDO in cell-free extract (DCP production, 4-aminoantipyrine method)
From the text: as §1, §2, §3, §4

Compound: CC(C)S[C@@H]1O[C@H](CO)[C@H](O)[C@H](O)[C@H]1O [IPTG, isopropyl β-D-thiogalactopyranoside]
- saturation IPTG concentration for enzyme production ([1]; E. coli DH5α (pYG3)): approximately 150 mg/l
- activation at 150 µg/mL ([1]; Escherichia coli, at saturation IPTG concentration, approximately 150 mg/l, read-out: enzyme productivity higher than without IPTG): ~40%

Compound: Cc1cc(Cl)ccc1OCC(=O)O [MCPA, 4-chloro-2-methyl-phenoxyacetic acid]
- cleavage by DDO [2]: cleaves the side chain

Compound: 2,4-D α-ketoglutarate dioxygenase (Cupriavidus pinatubonensis JMP134)
- Km [3]: 55 µM
- Km [4]: 107 µM

Compound: [Fe+2] [ferrous ions]
- saturation concentration of ferrous ion for enzyme activity ([5]; cell-free extract): 50 µM

Compound: 2,4-D α-ketoglutarate dioxygenase [DDO]
- Vmax ([5]; 20° C., pH 8.0, 50 μM Fe^2, cell-free extract of E. coli DH5α (pYG3)): 2.0 µmol/min/mg
- optimum pH for the enzymatic reaction ([5]; conversion of 2,4-D into DCP): 6.5

Compound: O=C(O)COc1cc(Cl)c(Cl)cc1Cl [2,4,5-T, (2,4,5,-trichlorophenoxy)acetic acid]
- cleavage by DDO [2]: does not cleave

Compound: O=C(O)COc1ccccc1 [phenoxyacetic acid]
- cleavage by DDO [2]: cleaves the side chain

Compound: Cc1ccccc1OCC(=O)O [2-methylphenoxyacetic acid]
- cleavage by DDO [2]: cleaves
